# Target: T1, jacalin (Artocarpus integer, UniProt P18670+P18671)
# T1 construct: native tetrameric lectin isolated from jackfruit seeds; labelled with Red-NHS 2nd Generation (Alexa Fluor 647) for MST
# Test: microscale thermophoresis with labelled jacalin; steady-state fluorescence titration also gave KD […]
# Format: binding
# T1 sequence (P18670 whole entry): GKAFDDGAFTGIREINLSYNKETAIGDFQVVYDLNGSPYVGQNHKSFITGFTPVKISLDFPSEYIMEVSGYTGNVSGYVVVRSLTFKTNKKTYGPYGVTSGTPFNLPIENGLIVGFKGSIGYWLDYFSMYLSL
# T1 sequence (P18671 whole entry): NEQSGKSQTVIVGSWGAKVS
compound,measurement,value
COc1cc(/C=C/C(=O)CC(=O)/C=C/c2ccc(O)c(OC)c2)ccc1O [curcumin],Kd,450 nM
